≈ marks a conversion by molar mass, not a printed value. Where two headings read alike, the source gives them in different places.
Columns and labels:
[1] = system: tobacco mosaic virus (TMV); test: Anti-TMV curative activity (treatment mode), live friction inoculation on tobacco seedlings; type: in vivo; conditions: Tobacco mosaic virus, read-out: Anti-TMV activity, Curative effect (inhibition), 100 μg/mL, tobacco seedlings, checked on seventh day
[2] = system: tobacco mosaic virus (TMV); test: Anti-TMV inactivation activity (inactivation mode), compound mixed with TMV before inoculation of tobacco leaves; type: in vivo; conditions: Tobacco mosaic virus, read-out: Anti-TMV activity, Inactivation effect (inhibition)
[3] = system: tobacco mosaic virus (TMV); test: Anti-TMV protective activity (protection mode), live friction inoculation on tobacco seedlings; type: in vivo; conditions: Tobacco mosaic virus, read-out: Anti-TMV activity, Protection effect (inhibition)
[4] = system: tobacco mosaic virus (TMV); test: Anti-TMV inducing activity (induction mode), tobacco seedlings; type: in vivo; conditions: Tobacco mosaic virus, read-out: Anti-TMV activity, Induction effect (inhibition), 100 μg/mL, tobacco seedlings
Alternaria solani = test: Fungicidal activity, fungi growth rate method, AS; type: cell-based; conditions: Alternaria solani; 50 μg/mL; read-out: Fungicidal activity, inhibition, AS
Botrytis cinerea = test: Fungicidal activity, fungi growth rate method, BC; type: cell-based; conditions: Botrytis cinerea; 50 μg/mL; read-out: Fungicidal activity, inhibition, BC
Cercospora arachidicola = test: Fungicidal activity, fungi growth rate method, CA; type: cell-based; conditions: Mycosphaerella arachidis, 50 μg/mL
wheat Gibberella zeae = test: microbe, parasite or virus in culture; type: cell-based; conditions: Fusarium graminearum, read-out: Fungicidal activity, inhibition, GZ
[5] = system: Phytophthora infestans (Mont) de Bary; test: microbe, parasite or virus in culture; type: cell-based; conditions: Phytophthora infestans
Physalospora piricola = test: Fungicidal activity, fungi growth rate method, PP; type: cell-based; conditions: 50 μg/mL; read-out: Fungicidal activity, inhibition, PP
Pellicularia sasakii = test: Fungicidal activity, fungi growth rate method, PS; type: cell-based; conditions: 50 μg/mL; read-out: Fungicidal activity, inhibition, PS
Rhizoctonia cerealis = test: Fungicidal activity, fungi growth rate method, RC; type: cell-based; conditions: Ceratobasidium cereale; 50 μg/mL; read-out: Fungicidal activity, inhibition, RC
Sclerotinia sclerotiorum = test: microbe, parasite or virus in culture; type: cell-based; conditions: Sclerotinia sclerotiorum; for inhibition at 50 µg/mL: 50 μg/mL; for EC90: read-out: EC90 against S. sclerotiorum in vitro
[6] = read-out: Fungicidal activity, inhibition, CA
[7] = read-out: Fungicidal activity, inhibition, PI
[8] = read-out: Fungicidal activity (inhibition) against SS: Sclerotinia sclerotiorum
[9] = read-out: Fungicidal activity, inhibition, SS

Structure (SMILES)	inhibition at 100 µg/mL [1] [%]	inhibition at 100 µg/mL [2] [%]	inhibition at 100 µg/mL [3] [%]	inhibition at 100 µg/mL [4] [%]	inhibition at 50 µg/mL (Alternaria solani) [%]	inhibition at 50 µg/mL (Botrytis cinerea) [%]	inhibition at 50 µg/mL (Cercospora arachidicola; [6]) [%]	inhibition at 50 µg/mL (wheat Gibberella zeae) [%]	inhibition at 50 µg/mL [5, 7] [%]	inhibition at 50 µg/mL (Physalospora piricola) [%]	inhibition at 50 µg/mL (Pellicularia sasakii) [%]	inhibition at 50 µg/mL (Rhizoctonia cerealis) [%]	inhibition at 50 µg/mL (Sclerotinia sclerotiorum; [8]) [%]	inhibition at 50 µg/mL (Sclerotinia sclerotiorum; [9]) [%]	melting point [°C]	EC90 (Sclerotinia sclerotiorum) [mg/L]	inhibition at 50 µg/mL (Cercospora arachidicola; read-out: Fungicidal activity (inhibition) against CA: Cercospora arachidicola) [%]	inhibition at 50 µg/mL ([5]; read-out: Fungicidal activity (inhibition) against PI: Phytophthora infestans (Mont) de Bary) [%]
O=C(N/C(=C\c1ccccc1)C(=O)N1CCC(O)(c2ccc(Br)cc2)CC1)c1ccc([N+](=O)[O-])cc1 [Compound 10, (Z)-N-[1-[[4-(4-bromophenyl)-4-hydroxy-1-piperidinyl]carbonyl]-2-phenylethenyl]-4-nitrobenzamide]	39	62	13	48	8	11	9	17	18	7	17	16	80 to 95	86	130 to 132			
O=C(N/C(=C\c1ccccc1)C(=O)N1CCC(O)(c2ccc(Br)cc2)CC1)c1cccc([N+](=O)[O-])c1 [Compound 11, (Z)-N-[1-[[4-(4-bromophenyl)-4-hydroxy-1-piperidinyl]carbonyl]-2-phenylethenyl]-3-nitrobenzamide]	78	71	5	33	24	12	25	34	14	21	8	24	100	100	128 to 129	127 (≈ 232 µM)		
O=C(N/C(=C\c1ccccc1)C(=O)N1CCC(O)(c2ccc(Br)cc2)CC1)c1ccccc1[N+](=O)[O-] [Compound 12, (Z)-N-[1-[[4-(4-bromophenyl)-4-hydroxy-1-piperidinyl]carbonyl]-2-phenylethenyl]-2-nitrobenzamide]	56	28	23	0	12	8	16	39	10	17	17	14	100	100	122 to 124	192 (≈ 348 µM)		
O=C(N/C(=C\c1ccccc1)C(=O)N1CCC(O)(c2ccc(Br)cc2)CC1)c1ccco1 [Compound 13, (Z)-N-[1-[[4-(4-bromophenyl)-4-hydroxy-1-piperidinyl]carbonyl]-2-phenylethenyl]-2-furamide]	47	69	26	30	15	24	16	33	27	16	21	22		95	138 to 140	195 (≈ 394 µM)		
O=C(N/C(=C\c1ccccc1)C(=O)N1CCC(O)(c2ccc(Br)cc2)CC1)c1cccs1 [Compound 14, (Z)-N-[1-[[4-(4-bromophenyl)-4-hydroxy-1-piperidinyl]carbonyl]-2-phenylethenyl]-2-thiophenecarboxamide]	39	30	34	52	17	24	7	7	5	0	3	8	80 to 95	83	134 to 136			
Cc1ccc(/C=C(\NC(=O)c2ccccc2)C(=O)N2CCC(O)(c3ccc(Br)cc3)CC2)cc1 [Compound 15, (Z)-N-[1-[[4-(4-bromophenyl)-4-hydroxy-1-piperidinyl]carbonyl]-2-(4-metylphenyl)ethenyl]benzamide]	20	0	0	41	17	10	13	10	21	7	12	16		56	234 to 236			
COc1ccc(/C=C(\NC(=O)c2ccccc2)C(=O)N2CCC(O)(c3ccc(Br)cc3)CC2)cc1 [Compound 16, (Z)-N-[1-[[4-(4-bromophenyl)-4-hydroxy-1-piperidinyl]carbonyl]-2-(4-methoxyphenyl)ethenyl]benzamide]	0	1	57	8	23	29	55	2	33	5	15	13		67	208 to 210		55	33
O=C(N/C(=C\c1ccc(F)cc1)C(=O)N1CCC(O)(c2ccc(Br)cc2)CC1)c1ccccc1 [Compound 17, (Z)-N-[1-[[4-(4-bromophenyl)-4-hydroxy-1-piperidinyl]carbonyl]-2-(4-fluorophenyl)ethenyl]-benzamide]	0	1	33	3	28	10	23	16	27	3	15	10		67	266 to 268			

Source: patent US11166460B2, “α-amino acrylate microbicide, and preparation method therefor and uses thereof” (priority 2017, dated 2021)
